In patent publication US20230382925A1, “MODULATORS OF CYSTIC FIBROSIS TRANSMEMBRANE CONDUCTANCE REGULATOR” (VERTEX PHARMACEUTICALS INCORPORATED, priority 2020, published 2023):
Like-named read-outs stand apart in the source and are kept apart here.

Target: CFTR (Homo sapiens, UniProt P13569)
Experiment: Membrane Potential Dye, Enteroid Assay B
Format: cell-based
Summary of the method: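 Activity given as % of a triple-combination reference (1 μM and 3 μM correctors, 300 nM acute potentiator). Enteroids were preincubated 18-24 h with compound; chloride efflux then measured 15 min by methyl oxonol fluorescence after forskolin/IBMX/Compound III stimulation in chloride-free buffer containing CaCCinh-A01 and Chicago Sky Blue.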

[1] = Table 10, read-out: Ent. B EC50

Chain of CFTR (P13569 with tags, fused parts or gaps DEL508-508): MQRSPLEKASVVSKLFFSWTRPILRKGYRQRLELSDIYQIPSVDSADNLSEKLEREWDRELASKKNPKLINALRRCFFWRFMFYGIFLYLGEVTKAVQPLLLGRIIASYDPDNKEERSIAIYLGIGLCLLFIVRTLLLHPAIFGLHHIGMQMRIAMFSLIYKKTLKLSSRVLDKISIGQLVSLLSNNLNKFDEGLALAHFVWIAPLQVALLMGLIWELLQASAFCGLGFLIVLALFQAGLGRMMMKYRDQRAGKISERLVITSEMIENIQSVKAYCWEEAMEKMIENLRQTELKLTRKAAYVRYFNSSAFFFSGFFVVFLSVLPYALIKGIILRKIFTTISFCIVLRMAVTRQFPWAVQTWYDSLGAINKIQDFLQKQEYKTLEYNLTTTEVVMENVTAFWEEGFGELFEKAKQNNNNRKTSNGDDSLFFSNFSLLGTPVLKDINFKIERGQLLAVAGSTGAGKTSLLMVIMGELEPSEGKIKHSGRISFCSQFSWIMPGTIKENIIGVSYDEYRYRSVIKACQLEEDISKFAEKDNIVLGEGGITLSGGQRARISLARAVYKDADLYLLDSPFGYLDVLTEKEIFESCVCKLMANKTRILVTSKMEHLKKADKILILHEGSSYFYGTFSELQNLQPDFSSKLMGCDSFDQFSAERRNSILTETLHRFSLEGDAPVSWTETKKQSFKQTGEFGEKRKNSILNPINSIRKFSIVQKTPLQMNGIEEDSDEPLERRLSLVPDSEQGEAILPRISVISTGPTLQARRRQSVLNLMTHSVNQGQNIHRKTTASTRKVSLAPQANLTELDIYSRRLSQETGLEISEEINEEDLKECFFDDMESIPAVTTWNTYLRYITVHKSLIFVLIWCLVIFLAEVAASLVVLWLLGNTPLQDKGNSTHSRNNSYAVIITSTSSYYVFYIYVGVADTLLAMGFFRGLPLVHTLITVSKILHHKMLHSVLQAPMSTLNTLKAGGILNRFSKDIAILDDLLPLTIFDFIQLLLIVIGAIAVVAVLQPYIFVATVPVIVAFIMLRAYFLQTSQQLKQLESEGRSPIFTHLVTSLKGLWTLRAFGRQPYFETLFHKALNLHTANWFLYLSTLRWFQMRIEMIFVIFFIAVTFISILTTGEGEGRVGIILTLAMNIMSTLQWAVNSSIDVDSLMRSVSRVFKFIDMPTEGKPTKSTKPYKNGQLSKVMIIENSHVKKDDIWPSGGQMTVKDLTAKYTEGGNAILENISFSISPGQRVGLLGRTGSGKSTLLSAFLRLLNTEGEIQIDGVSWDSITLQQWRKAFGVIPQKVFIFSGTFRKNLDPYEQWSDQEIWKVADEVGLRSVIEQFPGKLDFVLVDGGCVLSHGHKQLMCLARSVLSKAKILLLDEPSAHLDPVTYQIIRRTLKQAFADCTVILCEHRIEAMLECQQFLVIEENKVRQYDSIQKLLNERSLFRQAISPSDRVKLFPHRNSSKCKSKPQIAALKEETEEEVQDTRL

Structure (SMILES) | Ent. B Max Activity (%) (Table 10) | EC50 [1] | also measured
COC(=O)N1CCC2(CC1)CC(N1C(=O)c3cccc(c3)S(=O)(=O)Nc3nc(cc(-c4c(C)cccc4C)n3)OC[C@H]1CC(C)(C)C(F)(F)F)C2 [Compound 191, Methyl 2-[(11R)-6-(2,6-dimethylphenyl)-2,2,13-trioxo-11-(3,3,3-trifluoro-2,2-dimethylpropyl)-9-oxa-2λ^6-thia-3,5,12,19-tetraazatricyclo[12.3.1.14,8]nonadeca-1(17),4(19),5,7,14(18),15-hexaen-12-yl]-7-azaspiro[3.5]nonane-7-carboxylate] |  |  | Ent. B Max Activity (%) (Table 9): +++ (+++ is >60%); EC50 (Table 9, read-out: Ent. B EC50): < 1000 nM
Cc1cccc(C)c1-c1cc2nc(n1)NS(=O)(=O)c1cccc(c1)C(=O)N(C1CC3(CCNC(=O)C3)C1)[C@H](CC(C)C)CO2 (stereo partly drawn) [Compound 200] | ++ (++ is 30-60%) | < 1000 nM | 
Cc1cccc(C)c1-c1cc2nc(n1)NS(=O)(=O)c1cccc(c1)C(=O)N(C1CC3(CCNC(=O)C3)C1)[C@H](CC(C)C)CO2 (stereo partly drawn) [Compound 201] | ++ (++ is 30-60%) | < 1000 nM | 
CC(C)C[C@@H]1COc2cc(-c3c(F)cccc3C(F)(F)F)nc(n2)NS(=O)(=O)c2cccc(c2)C(=O)N1C1CC2(CC2)C1 [Compound 202] | ++ (++ is 30-60%) | < 1000 nM | 
CC(=O)N1CCC12CC(N1C(=O)c3cccc(c3)S(=O)(=O)Nc3nc(cc(-c4c(C)cccc4C)n3)OC[C@H]1CC(C)(C)C)C2 (stereo partly drawn) [Compound 207] | +++ (+++ is >60%) | < 1000 nM | 
Cc1cccc(C)c1-c1cc2nc(n1)NS(=O)(=O)c1cccc(c1)C(=O)N(C1CCCCC1)[C@H](CC(C)(C)C)CO2 [Compound 208] | + (+ is <300%) |  | 
Cc1cccc(C)c1-c1cc2nc(n1)NS(=O)(=O)c1cccc(c1)C(=O)N([C@H]1C[C@@H](OC(F)(F)C(F)(F)F)C1)[C@H](CC(C)C)CO2 [Compound 210] | ++ (++ is 30-60%) | < 1000 nM | 
Cc1cccc(C)c1-c1cc2nc(n1)NS(=O)(=O)c1cccc(c1)C(=O)N([C@H]1C[C@H](OC(F)(F)C(F)(F)F)C1)[C@H](CC(C)C)CO2 [Compound 211] | + (+ is <300%) |  | 
Cc1cccc(C)c1-c1cc2nc(n1)NS(=O)(=O)c1cccc(c1)C(=O)N(C1CC3(CCN(CCOC(C)C)CC3)C1)[C@H](CC(C)(C)C)CO2 [Compound 215] |  |  | Ent. B Max Activity (%): +++ (+++ is >60%); EC50 (read-out: Ent. B EC50): < 1000 nM
Cc1cccc(C)c1-c1cc2nc(n1)NS(=O)(=O)c1cccc(c1)C(=O)N(C1CC3(CC3)C1)C(CC(C)(C)C(F)(F)F)CO2 (stereo not drawn) [Compound 217] |  |  | Ent. B Max Activity (%): +++ (+++ is >60%); EC50 (read-out: Ent. B EC50): < 1000 nM
Cc1cccc(C)c1-c1cc2nc(n1)NS(=O)(=O)c1cccc(c1)C(=O)N(C1CS(=O)(=O)C1)[C@H](CC(C)(C)C)CO2 [Compound 222] | +++ (+++ is >60%) | < 1000 nM | 
COC(=O)N1CCC(n2cc(N3C(=O)c4cccc(c4)S(=O)(=O)Nc4nc(cc(-c5c(C)cccc5C)n4)OC[C@H]3CC(C)(C)C)cn2)CC1 [Compound 223] | + (+ is <300%) | < 1000 nM | 
COCCN1CCC(n2cc(N3C(=O)c4cccc(c4)S(=O)(=O)Nc4nc(cc(-c5c(C)cccc5C)n4)OC[C@H]3CC(C)(C)C)cn2)CC1 [Compound 224] | + (+ is <300%) |  | 
COCCn1cc(N2C(=O)c3cccc(c3)S(=O)(=O)Nc3nc(cc(-c4c(C)cccc4C)n3)OC[C@H]2CC(C)(C)C)cn1 [Compound 225] | +++ (+++ is >60%) | < 1000 nM | 
Cc1cccc(C)c1-c1cc2nc(n1)NS(=O)(=O)c1cccc(c1)C(=O)N(c1cnn(C3CCN(Cc4ccccc4)CC3)c1)[C@H](CC(C)(C)C)CO2 [Compound 226] | + (+ is <300%) | < 1000 nM | 
Cc1cccc(C)c1-c1cc2nc(n1)NS(=O)(=O)c1cccc(c1)C(=O)N(c1cn(C)nc1C)[C@H](CC(C)(C)C)CO2 [Compound 227] | +++ (+++ is >60%) | < 1000 nM | 
Cc1cccc(C)c1-c1cc2nc(n1)NS(=O)(=O)c1cccc(c1)C(=O)N(c1cnn(C(C)C)c1)[C@H](CC(C)(C)C)CO2 [Compound 228] | +++ (+++ is >60%) | < 1000 nM | 
Cc1cccc(C)c1-c1cc2nc(n1)NS(=O)(=O)c1cccc(c1)C(=O)N(c1cnn(CC(C)C)c1)[C@H](CC(C)(C)C)CO2 [Compound 229] | +++ (+++ is >60%) | < 1000 nM | 
Cc1cccc(C)c1-c1cc2nc(n1)NS(=O)(=O)c1cccc(c1)C(=O)N(c1cnn(C)c1)[C@H](CC(C)(C)C)CO2 [Compound 230] | +++ (+++ is >60%) | < 1000 nM | 
CCC(=O)N1C[C@H]2C[C@@H](C1)[C@H]2N1C(=O)c2cccc(c2)S(=O)(=O)Nc2nc(cc(-c3c(C)cccc3C)n2)OC[C@H]1CC(C)(C)C [Compound 231] | ++ (++ is 30-60%) |  | EC50 (read-out: Ent. B EC50, Table 10): < 1000 nM
Cc1cccc(C)c1-c1cc2nc(n1)NS(=O)(=O)c1cccc(c1)C(=O)N(C1CC3(CC(C(N)=O)C3)C1)[C@H](CC(C)(C)C)CO2 (stereo partly drawn) [Compound 232] | +++ (+++ is >60%) | < 1000 nM | 
Cc1cccc(C)c1-c1cc2nc(n1)NS(=O)(=O)c1cccc(c1)C(=O)N(C1CC3(CC(C(N)=O)C3)C1)[C@H](CC(C)(C)C)CO2 (stereo partly drawn) [Compound 233] | +++ (+++ is >60%) | < 1000 nM | 
CNC(=O)C1CC2(C1)CC(N1C(=O)c3cccc(c3)S(=O)(=O)Nc3nc(cc(-c4c(C)cccc4C)n3)OC[C@H]1CC(C)(C)C)C2 (stereo partly drawn) [Compound 234] | +++ (+++ is >60%) | < 1000 nM | 
CNC(=O)C1CC2(C1)CC(N1C(=O)c3cccc(c3)S(=O)(=O)Nc3nc(cc(-c4c(C)cccc4C)n3)OC[C@H]1CC(C)(C)C)C2 (stereo partly drawn) [Compound 235] | +++ (+++ is >60%) | < 1000 nM | 
CCC(=O)NC1(C)CC(N2C(=O)c3cccc(c3)S(=O)(=O)Nc3nc(cc(-c4c(C)cccc4C)n3)OC[C@H]2CC(C)(C)C)C1 (stereo partly drawn) [Compound 242] | ++ (++ is 30-60%) | < 1000 nM | 
CCC(=O)NC1(C)CC(N2C(=O)c3cccc(c3)S(=O)(=O)Nc3nc(cc(-c4c(C)cccc4C)n3)OCC2CC(C)(C)C)C1 (stereo not drawn) [Compound 243] | +++ (+++ is >60%) | < 1000 nM | 
Cc1cccc(C)c1-c1cc2nc(n1)NS(=O)(=O)c1cccc(c1)C(=O)N([C@H]1C[C@]3(C[C@H](NC(=O)C(C)C)C3)C1)[C@H](CC1(C(F)(F)F)CC1)CO2 (stereo partly drawn) [Compound 246] | +++ (+++ is >60%) | < 1000 nM | 
Cc1cccc(C)c1-c1cc2nc(n1)NS(=O)(=O)c1cccc(c1)C(=O)N([C@H]1C[C@@]3(C[C@H](NC(=O)C(C)C)C3)C1)[C@H](CC1(C(F)(F)F)CC1)CO2 (stereo partly drawn) [Compound 247] | +++ (+++ is >60%) | < 1000 nM | 
CCC(=O)N[C@H]1C[C@@]2(C1)C[C@H](N1C(=O)c3cccc(c3)S(=O)(=O)Nc3nc(cc(-c4c(C)cccc4C)n3)OC[C@H]1CC1(C(F)(F)F)CC1)C2 (stereo partly drawn) [Compound 248] | +++ (+++ is >60%) | < 1000 nM | 
CCC(=O)N[C@H]1C[C@]2(C1)C[C@H](N1C(=O)c3cccc(c3)S(=O)(=O)Nc3nc(cc(-c4c(C)cccc4C)n3)OC[C@H]1CC1(C(F)(F)F)CC1)C2 (stereo partly drawn) [Compound 249] | +++ (+++ is >60%) | < 1000 nM | 
